# Where a SMILES comes first, the peptide text is derived from it. Bridges are numbered along the chain shown (N, C = ends). Roman numbers before positions name the chains, in order. [ ]: non-standard residue; d: D form. Tle = CC(C)(C)[C@H](N)C(=O)O; dDab = NCC[C@@H](N)C(=O)O; hSer = N[C@@H](CCO)C(=O)O; Nle = CCCC[C@H](N)C(=O)O; Dab = NCC[C@H](N)C(=O)O; Dap = NC[C@H](N)C(=O)O
# Assays:
# Type in all cases: cell-based
# [1] = system: Acinetobacter baumannii 872842; settings: 872842
# In short: (§1)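 Visible-growth endpoint after 18-20 h at 35° C defines the MIC (μg/mL). Setup: CLSI broth microdilution, MH-II cation-adjusted broth with P-80 at 0.002% final, inoculum of approximately 10^6 CFU/mL, two-fold serial peptide dilutions.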
# [2] = system: Acinetobacter baumannii DSM 30008; settings: DSM 30008
# In short: as §1
# [3] = system: Enterobacter cloacae 848840; settings: 848840
# In short: as §1
# Escherichia coli 926415 = settings: 926415
# In short: as §1
# [4] = system: Escherichia coli ATCC 25922; settings: ATCC 25922
# In short: as §1
# [5] = system: Klebsiella pneumoniae 968733; settings: 968733
# In short: as §1
# [6] = system: Klebsiella pneumoniae SSI #3010; settings: SSI #3010
# In short: as §1
# [7] = system: Pseudomonas aeruginosa ATCC 27853; settings: ATCC 27853
# In short: as §1
# [8] = system: human red blood cells (hRBC); assay: Hemolysis; settings: red cells of human, 1 h, 200
# In short: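 hRBC washed 4× in PBS; 200 μg/mL peptide + 20% (v/v) hRBC, 1 h, 37° C, 300 rpm. Spin, supernatant ~7.5-fold diluted, OD540 blank corrected. % hemolysis = OD540 peptide / OD540 Triton X-100 × 100.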
smiles,measurement,setting,value
"CCCC[C@@H]1NC(=O)[C@H](CO)NC(=O)[C@H](Cc2c[nH]c3ccccc23)NC(=O)[C@H](CO)NC(=O)[C@@H](CCN)NC(=O)[C@H](CCC(=O)N[C@@H](CCN)C(=O)N[C@H](C(=O)N[C@@H](CN)C(=O)N[C@H]2CCNC(=O)[C@H]([C@@H](C)O)NC(=O)[C@H](CCN)NC(=O)[C@H](CCN)NC(=O)[C@H](CC(C)C)NC(=O)[C@@H](CC(C)C)NC(=O)[C@H](CCN)NC2=O)[C@@H](C)O)NC(=O)[C@H](CCN)NC(=O)[C@H](Cc2ccc(O)cc2)NC(=O)[C@@H](NC(=O)[C@@H](NC(C)=O)C(C)C)CCNC(=O)CC[C@@H](C(=O)N[C@@H](CO)C(N)=O)NC1=O [Ex. 326] (I: Ac-V[Dab]Y[Dab]E[dDab]SWS[Nle]ES-NH2 / II: [Dab]T[Dap][Dab][Dab][dL]L[Dab][Dab]T; lactam I:2-I:11, II:4-II:C; amide I:5-II:N)",MIC,[1],0.125 µg/mL
same,Acinetobacter baumannii DSM 30008 MIC,[2],0.0625 µg/mL
same,MIC,[3],0.0625 µg/mL
same,MIC,Escherichia coli 926415,0.125 µg/mL
same,Escherichia coli ATCC 25922 MIC,[4],0.0625 µg/mL
same,MIC,[5],0.5 µg/mL
same,Klebsiella pneumoniae SSI #3010 MIC,[6],0.0625 µg/mL
same,Pseudomonas aeruginosa ATCC 27853 MIC,[7],0.0625 µg/mL
same,Hemolysis at 200 μg/mL,[8],<1%
CC(=O)N[C@H](C(=O)N[C@H]1CSSC[C@@H](C(=O)N[C@@H](CO)C(N)=O)NC(=O)[C@H](C(C)C)NC(=O)[C@H](CCC(=O)O)NC(=O)[C@H](Cc2c[nH]c3ccccc23)NC(=O)[C@H](CO)NC(=O)[C@@H](CCN)NC(=O)[C@H](CCC(=O)N[C@@H](CCN)C(=O)N[C@H](C(=O)N[C@@H](CN)C(=O)N[C@H]2CCNC(=O)[C@H]([C@@H](C)O)NC(=O)[C@H](CCN)NC(=O)[C@H](CCN)NC(=O)[C@H](CC(C)C)NC(=O)[C@@H](CC(C)C)NC(=O)[C@H](CCN)NC2=O)[C@@H](C)O)NC(=O)[C@H](CCCCN)NC(=O)[C@H](Cc2ccc(O)cc2)NC1=O)C(C)C [Ex. 151] (I: Ac-VCYKE[dDab]SWEVCS-NH2 / II: [Dab]T[Dap][Dab][Dab][dL]L[Dab][Dab]T; disulfide I:2-I:11; amide I:5-II:N; lactam II:4-II:C),MIC,[1],0.25 µg/mL
same,MIC,[2],0.0625 µg/mL
same,MIC,[3],0.125 µg/mL
same,MIC,Escherichia coli 926415,0.5 µg/mL
same,MIC,[4],0.03125 µg/mL
same,MIC,[5],1 µg/mL
same,MIC,[6],0.0625 µg/mL
same,MIC,[7],0.125 µg/mL
same,Hemolysis at 200 μg/mL,[8],<1%
CNC(=O)[C@H](CO)NC(=O)[C@@H]1CSSC[C@H](NC(=O)[C@@H](NC(C)=O)C(C)C)C(=O)N[C@@H](Cc2ccc(O)cc2)C(=O)N[C@@H](CCN)C(=O)N[C@@H](CCC(=O)N[C@@H](CCN)C(=O)N[C@H](C(=O)N[C@@H](CN)C(=O)N[C@H]2CCNC(=O)[C@H]([C@@H](C)O)NC(=O)[C@H](CCN)NC(=O)[C@H](CCN)NC(=O)[C@H](CC(C)C)NC(=O)[C@@H](CC(C)C)NC(=O)[C@H](CCN)NC2=O)[C@@H](C)O)C(=O)N[C@H](CCN)C(=O)N[C@@H](CO)C(=O)N[C@@H](Cc2c[nH]c3ccccc23)C(=O)N[C@@H](CO)C(=O)N[C@@H](C(C)(C)C)C(=O)N1 [Ex. 145] (I: Ac-VCY[Dab]E[dDab]SWS[Tle]CS-NHMe / II: [Dab]T[Dap][Dab][Dab][dL]L[Dab][Dab]T; disulfide I:2-I:11; amide I:5-II:N; lactam II:4-II:C),MIC,[1],0.03125 µg/mL
same,MIC,[2],0.0625 µg/mL
same,MIC,[3],0.125 µg/mL
same,MIC,Escherichia coli 926415,0.0625 µg/mL
same,MIC,[4],0.0625 µg/mL
same,MIC,[5],0.125 µg/mL
same,MIC,[6],0.125 µg/mL
same,MIC,[7],0.125 µg/mL
same,Hemolysis at 200 μg/mL,[8],2%
"CC(=O)N[C@H](C(=O)N[C@H]1CNC(=O)CC[C@@H](C(=O)N[C@@H](CO)C(N)=O)NC(=O)[C@H](C(C)C)NC(=O)[C@H](CO)NC(=O)[C@H](Cc2c[nH]c3ccccc23)NC(=O)[C@H](CO)NC(=O)[C@@H](CCN)NC(=O)[C@H](CCC(=O)N[C@@H](CCN)C(=O)N[C@H](C(=O)N[C@@H](CN)C(=O)N[C@H]2CCNC(=O)[C@H]([C@@H](C)O)NC(=O)[C@H](CCN)NC(=O)[C@H](CCN)NC(=O)[C@H](CC(C)C)NC(=O)[C@@H](CC(C)C)NC(=O)[C@H](CCN)NC2=O)[C@@H](C)O)NC(=O)[C@H](CCN)NC(=O)[C@H](Cc2ccc(O)cc2)NC1=O)C(C)C [Ex. 320] (I: Ac-V[Dap]Y[Dab]E[dDab]SWSVES-NH2 / II: [Dab]T[Dap][Dab][Dab][dL]L[Dab][Dab]T; lactam I:2-I:11, II:4-II:C; amide I:5-II:N)",MIC,[1],1 µg/mL
same,Acinetobacter baumannii DSM 30008 MIC,[2],0.5 µg/mL
same,MIC,[3],2 µg/mL
same,MIC,Escherichia coli 926415,4 µg/mL
same,Escherichia coli ATCC 25922 MIC,[4],0.0625 µg/mL
same,MIC,[5],8 µg/mL
same,Klebsiella pneumoniae SSI #3010 MIC,[6],0.125 µg/mL
same,Pseudomonas aeruginosa ATCC 27853 MIC,[7],0.25 µg/mL
same,Hemolysis at 200 μg/mL,[8],<1%
CC(=O)N[C@H](C(=O)N[C@H]1CSSC[C@@H](C(=O)N[C@H](C(N)=O)[C@@H](C)O)NC(=O)[C@H](C(C)(C)C)NC(=O)[C@H](CCC(=O)O)NC(=O)[C@H](Cc2c[nH]c3ccccc23)NC(=O)[C@H](CO)NC(=O)[C@@H](CCN)NC(=O)[C@H](CCC(=O)N[C@@H](CCN)C(=O)N[C@H](C(=O)N[C@@H](CN)C(=O)N[C@H]2CCNC(=O)[C@H]([C@@H](C)O)NC(=O)[C@H](CCN)NC(=O)[C@H](CCN)NC(=O)[C@H](CC(C)C)NC(=O)[C@@H](CC(C)C)NC(=O)[C@H](CCN)NC2=O)[C@@H](C)O)NC(=O)[C@H](CCN)NC(=O)[C@H](Cc2ccc(O)cc2)NC1=O)C(C)C [Ex. 135] (I: Ac-VCY[Dab]E[dDab]SWE[Tle]CT-NH2 / II: [Dab]T[Dap][Dab][Dab][dL]L[Dab][Dab]T; disulfide I:2-I:11; amide I:5-II:N; lactam II:4-II:C),MIC,[1],0.03125 µg/mL
same,MIC,[2],0.03125 µg/mL
same,MIC,[3],0.0625 µg/mL
same,MIC,Escherichia coli 926415,0.0625 µg/mL
same,MIC,[4],0.03125 µg/mL
same,MIC,[5],0.125 µg/mL
same,MIC,[6],0.0625 µg/mL
same,MIC,[7],0.125 µg/mL
same,Hemolysis at 200 μg/mL,[8],<1%
CC[C@H](C)[C@@H]1NC(=O)[C@H](CO)NC(=O)[C@H](Cc2c[nH]c3ccccc23)NC(=O)[C@H](CO)NC(=O)[C@@H](CCN)NC(=O)[C@H](CCC(=O)N[C@@H](CCN)C(=O)N[C@H](C(=O)N[C@@H](CN)C(=O)N[C@H]2CCNC(=O)[C@H]([C@@H](C)O)NC(=O)[C@H](CCN)NC(=O)[C@H](CCN)NC(=O)[C@H](CC(C)C)NC(=O)[C@@H](CC(C)C)NC(=O)[C@H](CCN)NC2=O)[C@@H](C)O)NC(=O)[C@H](CCN)NC(=O)[C@H](Cc2ccc(O)cc2)NC(=O)[C@@H](NC(=O)[C@@H](NC(C)=O)C(C)C)CSSC[C@@H](C(=O)N[C@@H](CO)C(N)=O)NC1=O [Ex. 315] (I: Ac-VCY[Dab]E[dDab]SWSICS-NH2 / II: [Dab]T[Dap][Dab][Dab][dL]L[Dab][Dab]T; disulfide I:2-I:11; amide I:5-II:N; lactam II:4-II:C),MIC,[1],0.0625 µg/mL
same,Acinetobacter baumannii DSM 30008 MIC,[2],0.01562 µg/mL
same,MIC,[3],0.125 µg/mL
same,MIC,Escherichia coli 926415,0.0625 µg/mL
same,Escherichia coli ATCC 25922 MIC,[4],0.01562 µg/mL
same,MIC,[5],0.0625 µg/mL
same,Klebsiella pneumoniae SSI #3010 MIC,[6],0.0625 µg/mL
same,Pseudomonas aeruginosa ATCC 27853 MIC,[7],0.0625 µg/mL
same,Hemolysis at 200 μg/mL,[8],2%
CC(C)C[C@@H]1NC(=O)[C@@H](CC(C)C)NC(=O)[C@H](CCN)NC(=O)[C@@H](NC(=O)[C@H](CCN)NC(=O)[C@@H](NC(=O)[C@H](CCN)NC(=O)CC[C@@H]2NC(=O)[C@H](CCN)NC(=O)[C@H](Cc3ccc(O)cc3)NC(=O)[C@@H](NC(=O)[C@@H](N)C(C)C)CSSC[C@@H](C(=O)N[C@@H](CO)C(N)=O)NC(=O)[C@H](C(C)C)NC(=O)[C@H](CCO)NC(=O)[C@H](Cc3c[nH]c4ccccc34)NC(=O)[C@H](CCO)NC(=O)[C@@H](CCN)NC2=O)[C@@H](C)O)CCNC(=O)[C@H]([C@@H](C)O)NC(=O)[C@H](CCN)NC(=O)[C@H](CCN)NC1=O [Ex. 48] (I: H-VCY[Dab]E[dDab][hSer]W[hSer]VCS-NH2 / II: [Dab]T[Dab][Dab][Dab][dL]L[Dab][Dab]T; disulfide I:2-I:11; amide I:5-II:N; lactam II:4-II:C),MIC,[1],0.5 µg/mL
same,MIC,[2],0.25 µg/mL
same,MIC,[3],4 µg/mL
same,MIC,Escherichia coli 926415,1 µg/mL
same,MIC,[4],0.25 µg/mL
same,MIC,[5],8 µg/mL
same,MIC,[6],0.25 µg/mL
same,MIC,[7],0.125 µg/mL
same,Hemolysis at 200 μg/mL,[8],<1%
